Tested on: CEM T cells
Experiment: Two-color confocal ratiometric imaging of normal and apoptotic cells
Assay type: cell-based, human
Description: FIG. 5: Confocal fluorescence ratiometric images of CEM cells stained with F2N12S: normal cells (a); apoptotic cells, obtained by FITC-annexin based sorting of cells treated with actinomycin (b); and actinomycin-treated without cell sorting (c). The images were recorded after a 10 min incubation of the probe with the cells. Scale bar, 10 μm.
Human lymphoid CEM T cells were cultured in X-vivo 15 medium (Cambrex, France) at 37° C. in humidified 5% CO2 atmosphere. Cell viability was checked by trypan blue exclusion. Cells were seeded at 5×10^5 cells/ml in the presence or absence of actinomycin D (0.5 μg/ml) for 18 h. Cells were pelleted by centrifugation at 1500 rpm for 5 min and resuspended at 1×10^6 cells/ml in X-vivo 15 medium for experiments.
The cells were washed twice by HBSS before each experiment to eliminate fetal bovine serum. In sorting experiments, cells were resuspended in the binding buffer and labeled with the annexin V-FITC kit. For fluorescence measurements with the probe of the invention F2N12S (fluorometry, flow cytometry and confocal microscopy), cells were resuspended in HBSS with 0.1 μM F2N12S. Then, the cell suspension was placed in a shaker bath for 10 min in the incubator. The staining pattern of the cells was checked with a Confocal Imaging System MRC-1024 (BioRad) to ascertain that fluorescence originates from the plasma membrane.
For collecting cell images, a Laser Scanning Confocal Imaging System MRC-1024 (Bio-Rad) was used. Cells in chambered cover glass were prepared by following the preparation procedure described above. The 442 nm line of a HeCd laser was used as the excitation light source. Emission was collected by using two filters: 485/30 for the N* band and 585LP for the T* band. Collected images were analyzed by the Amira 3.0 software.
Two-color confocal fluorescence microscopy of CEM T cells stained with F2N12S was performed. Emission light was collected in two spectral regions: at 470-500 nm to monitor the emission of the N* band and above 585 nm to collect the emission of the T* band. Ratiometric images were obtained by dividing the intensity of the T* band by the intensity of the N* band and were used to monitor the cell plasma membrane changes induced by addition of actinomycin D (FIG. 5, a-c).

[1] = actinomycin D-treated cells not sorted by cytometry

Substance: 1-dodecanaminium, N-[[2-[4-Diethylaminophenyl]-3-hydroxychromon-6-yl]-methyl]-N-methyl-N-(3-sulfopropyl)-, inner salt [F2N12S]
- fluorescence intensity ratio T*/N*, apoptotic cells [1]: ~0.25
- fluorescence intensity ratio T*/N*, living cells [1]: ~1
- fluorescence intensity ratio T*/N* at the plasma membrane (apoptotic cells obtained by cell sorting, average): around 0.25
- change in the T*/N* ratio, non-treated versus apoptotic cells (confocal imaging): 4 fold
- fluorescence intensity ratio T*/N* at the plasma membrane (non-treated cells, N* 470-500 nm, T* above 585 nm): ~1

— patent US7880021B2, “Compounds and kits for the detection and the quantification of cell apoptosis” (Centre National de la Recherche Scientifique (CNRS), priority 2005, dated 2011)
